From article PMC8881063 (Journal of Enzyme Inhibition and Medicinal Chemistry, 2022)
“Also recorded” adds a separate entry of the source.

Columns and labels:
recombinant human MAO-A = target: T1, recombinant human MAO-A (Homo sapiens, UniProt P21397); assay: hMAO-A inhibition, spectrophotometric assay; assay type: biochemical; settings: for inhibition at 10 µM: single dose concentration of 10 µM
T1 sequence (P21397 1-527): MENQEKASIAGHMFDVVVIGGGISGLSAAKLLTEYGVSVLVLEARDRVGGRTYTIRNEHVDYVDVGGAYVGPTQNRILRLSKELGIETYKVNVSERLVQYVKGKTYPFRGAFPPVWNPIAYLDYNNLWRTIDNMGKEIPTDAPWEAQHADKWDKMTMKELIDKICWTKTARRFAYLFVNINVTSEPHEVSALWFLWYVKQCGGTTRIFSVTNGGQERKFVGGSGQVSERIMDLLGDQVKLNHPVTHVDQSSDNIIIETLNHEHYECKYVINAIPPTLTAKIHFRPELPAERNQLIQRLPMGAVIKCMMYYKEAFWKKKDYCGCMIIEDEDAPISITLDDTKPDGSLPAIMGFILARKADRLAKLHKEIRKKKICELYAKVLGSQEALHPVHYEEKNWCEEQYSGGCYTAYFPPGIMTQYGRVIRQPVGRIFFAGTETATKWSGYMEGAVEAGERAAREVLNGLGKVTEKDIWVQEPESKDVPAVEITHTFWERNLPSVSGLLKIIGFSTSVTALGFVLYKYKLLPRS
Text: Two different MAO isoforms are known.

MAO-B [1] = target: T2, MAO-B (Homo sapiens, UniProt P27338); assay: hMAO-B inhibition, spectrophotometric assay; settings: for inhibition at 10 µM: read-out: MAO-B % Inhibition, single dose concentration of 10 µM; for Selectivity index for inhibition of MAO-B: IC50 MAO-A divided by IC50 MAO-B
T2 sequence (P27338 1-520): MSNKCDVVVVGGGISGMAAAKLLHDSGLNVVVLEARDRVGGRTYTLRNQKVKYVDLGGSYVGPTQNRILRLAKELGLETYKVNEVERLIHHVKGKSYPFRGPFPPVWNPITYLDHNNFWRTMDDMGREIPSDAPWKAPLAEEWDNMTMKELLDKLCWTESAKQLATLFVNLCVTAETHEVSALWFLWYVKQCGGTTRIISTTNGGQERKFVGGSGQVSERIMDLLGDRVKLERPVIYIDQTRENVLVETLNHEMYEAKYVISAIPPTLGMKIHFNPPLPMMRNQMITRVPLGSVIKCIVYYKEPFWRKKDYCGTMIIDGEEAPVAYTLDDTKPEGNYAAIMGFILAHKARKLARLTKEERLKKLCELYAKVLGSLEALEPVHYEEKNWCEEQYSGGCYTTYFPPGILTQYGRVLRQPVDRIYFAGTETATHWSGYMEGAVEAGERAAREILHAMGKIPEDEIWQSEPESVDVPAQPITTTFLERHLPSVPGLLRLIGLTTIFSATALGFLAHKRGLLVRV
Procedure: The inhibitory activities of the compounds against hMAO-A and hMAO-B enzymes were evaluated referring to a previously described method (Supporting information)[49].

BV2 cells = assay: BV2 cell viability, WST-1 assay; assay type: cell-based; settings: doses of 1, 10, 30 and 50 µM
Text: Promising antineurodegenrative candidate molecules should not impair viability of CNS cells. Microglia are critical cells within CNS involved in microglia–neuron communications and are responsible for maintenance of brain integrity and health[61]^,[62]. However, under neuroinflammatory conditions, aberrant activation of microglia contributes to neurodegeneration and disease progression. In this regard, suppression of the abnormal activation while maintenance of viability of microglia is important considerations. […] The viability assay was carried out using the water-soluble tetrazolium reagent WST-1 which eliminates the formazan dissolution step requested in case of MTT[65] employing multiple doses of 1, 10, 30, and 50 µM. […] In lieu of this, it might be inferred that these compounds showing effective inhibition of MAO-B activity and triggering no impairment of microglia viability are good candidates might be advanced for further evaluation towards the development of multifunctional molecules for neurodegenerative diseases such as PD.
The impact of the compounds on the viability of cells was performed by the well-known WST-1 assay method as described in the Supporting information.

MAO-B [2] = target: T2, MAO-B; assay: MAO-B inhibition kinetic study (Michaelis–Menten, Lineweaver–Burk); assay type: biochemical
Procedure: (§1) To get insights into MAO-B inhibition reaction by compounds 1p and 1y, a kinetic study and reversibility testing were conducted. As illustrated in Figure 4(A,B), Michaelis–Menten graphs were constructed using different concentrations of compounds 1p and 1y employing different concentrations benzylamine as a substrate.
(§2) Kinetics of the inhibition of MAO-B and testing of reversibility were conducted according to literature-reported protocols[59] as indicated in the Supporting information.

MAO-B [3] = target: T2, MAO-B; assay: MAO-B inhibition reversibility testing (washing); assay type: biochemical; settings: enzymatic activity after washing
Procedure: as §1, §2

[4] = test system: LPS-treated BV2 cells (NO production); assay: LPS-induced production of nitric oxide in BV2 cells; assay type: cell-based; settings: different concentrations, Figure 3(A)
Procedure: (§3) Neuroinflammation is a crucial component in neurodegenerative diseases. Chronic activation of microglia, which are the brain-resident form of macrophages, results in sustained production of several proinflammatory mediators including glial NO, PGE2, and others molecules that are implicated in multiple neurodegenerative diseases. […] In this regard, LPS-treated BV2 cells were incubated with or without different concentrations of each compound. […] Based on collective results of antineuroinflammatory activity evaluation, in conjugation with above-conducted MAO inhibitions’ assays, compound 1p might be claimed as a promising lead compound eliciting polypharmacological effects combining inhibition of neuroinflammation and MAO-B activity; both processes are crucial components of neurodegenerative diseases such as PD.
(§4) The abilities of compounds to inhibit the induced production of NO and PGE2 were assessed by well-known protocol as indicated in the Supporting information.

[5] = test system: LPS-treated BV2 cells (PGE2 production); assay: LPS-induced production of PGE2 in BV2 cells; assay type: cell-based; settings: different concentrations, Figure 3(B)
Procedure: as §3, §4

SMILES	IC50 (recombinant human MAO-A) [µM]	inhibition at 10 µM (recombinant human MAO-A) [%]	IC50 (MAO-B [1]) [µM]	inhibition at 10 µM (MAO-B [1]) [%]	Selectivity index for inhibition of MAO-B (MAO-B [1])	Ki (MAO-B [2]; benzylamine as substrate) [µM]	Reversibility of MAO-B inhibition (MAO-B [3])	Impact on viability of BV2 cells (BV2 cells)	Type of MAO-B inhibition (MAO-B [2]; Lineweaver–Burk plots)	Effect on LPS-induced NO production by BV2 cells [4]	Effect on LPS-induced PGE2 production by BV2 cells [5]
O=C1/C(=C/c2ccc(O)cc2O)Oc2cc(O)ccc21 [Compound 1d]	> 10	44.1	> 10	48.3							
O=C1/C(=C/c2cc(O)cc(O)c2)Oc2cc(O)ccc21 [Compound 1g, (Z)-2–(3,5-Dihydroxybenzylidene)-6-hydroxybenzofuran-3(2H)-one]	> 10	35.7	> 10	12.8							
O=C1/C(=C/c2cc(O)c(O)c(O)c2)Oc2cc(O)ccc21 [Compound 1h]	> 10	49.5	> 10	47.5							
COc1ccccc1/C=C1\Oc2cc(O)ccc2C1=O [Compound 1i]	> 100	5.49	1.84	75.5	>54						
COc1cccc(/C=C2\Oc3cc(O)ccc3C2=O)c1 [Compound 1j]	> 100	7.43	2.41	73.2	>41						
COc1cccc(/C=C2\Oc3cc(O)ccc3C2=O)c1OC [Compound 1l]	> 100	-2.21	3.52	70.8	>28						
COc1ccc(OC)c(/C=C2\Oc3cc(O)ccc3C2=O)c1 [Compound 1m]	> 10	-0.29	> 10	46.3							
COc1ccc(/C=C2\Oc3cc(O)ccc3C2=O)cc1OC [Compound 1n]	> 10	4.52	> 10	42.6							
COc1cc(/C=C2\Oc3cc(O)ccc3C2=O)cc(OC)c1 [Compound 1o]	> 10	0.37	> 10	41.2							
COCOc1ccc(/C=C2\Oc3cc(O)ccc3C2=O)cc1 [Compound 1q]	> 100	24.5	0.593	89	>168			none of the tested concentrations			
COc1ccc2c(c1)O/C(=C\c1ccccc1O)C2=O [Compound 1r]	> 10	2.29	> 10	22.5							
COc1ccc2c(c1)O/C(=C\c1cccc(O)c1)C2=O [Compound 1s]	> 10	7.73	> 10	48.9							
COc1ccc2c(c1)O/C(=C\c1ccc(O)cc1)C2=O [Compound 1t]	> 100	8.54	1.33	89.6	>75						
COc1ccc2c(c1)O/C(=C\c1ccccc1OC)C2=O [Compound 1x]	> 100	21.6	0.593	89.5	>168			none of the tested concentrations			
COc1cccc(/C=C2\Oc3cc(OC)ccc3C2=O)c1 [Compound 1y]	> 100	3.26	0.201	99.2	>496	0.0291	washing restored the enzymatic activity	none of the tested concentrations	competitive inhibitors; also recorded: Competitive inhibition		
O=C1/C(=C/c2ccc(O)cc2)Oc2cc(O)ccc21 [Hispidol, hispidol, reference compound]	5.28	69.3						cytotoxic effects		significant inhibition of NO production	effectively suppressed the induced-PGE2 production
C[C@H](NCc1ccc(OCc2cccc(F)c2)cc1)C(N)=O [Safinamide, safinamide, reference compound]								cytotoxic effects		significant inhibition of NO production	undesirable dose-dependent increase in PGE2 production

More lines, main results first:

IC50 (recombinant human MAO-A) [µM]	inhibition at 10 µM (recombinant human MAO-A) [%]	IC50 (MAO-B [1]) [µM]	inhibition at 10 µM (MAO-B [1]) [%]	Selectivity index for inhibition of MAO-B (MAO-B [1])	Ki (MAO-B [2]; benzylamine as substrate) [µM]	Reversibility of MAO-B inhibition (MAO-B [3])	SMILES	Impact on viability of BV2 cells (BV2 cells)	Type of MAO-B inhibition (MAO-B [2]; Lineweaver–Burk plots)	Effect on LPS-induced NO production by BV2 cells [4]	Effect on LPS-induced PGE2 production by BV2 cells [5]
> 10	9.02	> 10	< 50				O=C1/C(=C/c2ccccc2O)Oc2cc(O)ccc21 [Compound 1a]				
> 10	16.6	> 10	13.6				O=C1/C(=C/c2cccc(O)c2)Oc2cc(O)ccc21 [Compound 1b]				
> 10	46.2	3	58.9	>3.34			O=C1/C(=C/c2cccc(O)c2O)Oc2cc(O)ccc21 [Compound 1c, (Z)-2–(2,3-Dihydroxybenzylidene)-6-hydroxybenzofuran-3(2H)-one]				
4.66	64.9	2.41	61.8	1.93			O=C1/C(=C/c2ccc(O)c(O)c2)Oc2cc(O)ccc21 [Compound 1e]				
7.77	53.3	3.52	61.4	2.21			O=C1/C(=C/c2cc(O)ccc2O)Oc2cc(O)ccc21 [Compound 1f]				
6.98	53	0.365	94.6				COc1ccc(/C=C2\Oc3cc(O)ccc3C2=O)cc1 [Compound 1k]				
7.04	52.8	2.41	65				COc1ccc2c(c1)O/C(=C\c1cccc(O)c1O)C2=O [Compound 1u, (Z)-2–(2,3-Dihydroxybenzylidene)-6-methoxybenzofuran-3(2H)-one]				
8.2	55.7	6.04	66.7				COc1ccc2c(c1)O/C(=C\c1ccc(O)cc1O)C2=O [Compound 1v]				
5.62	60.8	2.41	70.5				COc1ccc2c(c1)O/C(=C\c1ccc(O)c(O)c1)C2=O [Compound 1w]				
